Results reported in patent publication US20250282770A1, “BIOLUMINESCENT PROBES TO TRACK STEM CELLS IN VIVO” (THE BOARD OF TRUSTEES OF THE UNIVERSITY OF ILLINOIS, priority 2024, published 2025).

Columns and labels:
[1] = Stability of AlDeLuc at acidic, neutral and alkaline pHs; format: physicochemical; conditions: 2 μM, then ALDH1A1 and luciferase
Method: Stability of AlDeLuc at Acidic, Neutral and Alkaline pHs. The stability of AlDeLuc (2 μM) to acidic, neutral and alkaline conditions were investigated in a black 96-well plate and monitored using the IVIS imaging system. AlDeLuc was incubated in 1 M HCl (acidic), 1 M NaCl (neutral, pH=7), or 1 M NaOH (alkaline) for one hour, neutralized, and diluted with 0.1 M potassium phosphate buffer (pH 7.4). To the black well-plate was added PBS (pH 7.4), NAD^+ (1 mM), ALDH1A1 (0.4 μM), and either the acidic-, neutral-, or alkaline-treated AlDeLuc. Immediately after, each well was treated with ATP-MgSO4 (45 μL, prepared by mixing 17.78 mM ATP-Mg and 35.56 mM MgSO4 in a 1:1 ratio in PBS buffer) and luciferase (5 μL, 1 mg/mL in PBS containing 10% glycerol) to initiate bioluminescence production. Light was collected immediately after mixing, and the signal enhancement was determined relative to control wells not treated with AlDeLuc. The total volume of each well was 200 μL (PBS (pH 7.4) with 0.2% DMSO). All data reported as the mean±standard deviation.

ALDH1A1 = target: T1, ALDH1A1 (Homo sapiens, UniProt P00352); assay: Logic-gate activation of AlDeLuc by acid, ALDH1A1 and luciferase; dose dependence; format: biochemical
T1 construct: inferred from Ni-NTA purification; made in house; host or cells: E. coli BL21(DE3)
T1 sequence (P00352 1-501): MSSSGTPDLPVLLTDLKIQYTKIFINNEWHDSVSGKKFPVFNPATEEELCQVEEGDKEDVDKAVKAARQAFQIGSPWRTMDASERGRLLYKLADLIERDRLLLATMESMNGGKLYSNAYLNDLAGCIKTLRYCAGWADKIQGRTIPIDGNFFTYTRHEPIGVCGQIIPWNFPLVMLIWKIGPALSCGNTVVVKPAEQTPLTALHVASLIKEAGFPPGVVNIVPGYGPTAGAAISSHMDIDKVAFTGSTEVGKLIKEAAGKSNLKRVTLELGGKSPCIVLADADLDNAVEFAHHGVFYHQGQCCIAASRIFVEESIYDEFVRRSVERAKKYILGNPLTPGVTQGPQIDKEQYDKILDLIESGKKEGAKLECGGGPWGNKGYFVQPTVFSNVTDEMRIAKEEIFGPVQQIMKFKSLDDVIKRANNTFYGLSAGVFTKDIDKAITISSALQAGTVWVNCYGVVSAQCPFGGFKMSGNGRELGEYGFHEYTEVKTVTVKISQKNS
Method: Dose-dependent Enhancement of AlDeLuc. The response of ALDH1A1 (0.4 μM) against different concentrations of AlDeLuc was measured in a black 96-well plate and was monitored using the IVIS imaging system. Various stocks of AlDeLuc were generated so that 20 μL of the probe solution gave the desired concentration. Stocks were prepared by the following: AlDeLuc was first dissolved in DMSO followed by a 60 minute incubation in equal volume 1 M HCl. Subsequently, the reaction was neutralized with 1 M NaOH and diluted with PBS. To a black 96-well plate, TEA buffer (pH 7.4), NAD^+ (2.5 mM), and either […], 5 μM, 10 μM, or 50 μM of AlDeLuc was added. After 60 minutes, each well was treated with ATP-MgSO4 (45 μL, prepared by mixing 17.78 mM ATP-Mg and 35.56 mM MgSO4 in a 1:1 ratio in PBS buffer) and luciferase (5 μL, 1 mg/mL in PBS containing 10% glycerol) to initiate bioluminescence production. Light was collected immediately after mixing, and the signal enhancement was determined relative to control wells not treated with enzymes. The total volume of each well was 200 μL (TEA (pH 7.4) with 0.2% DMSO). All data reported as the mean±standard deviation (n=4).
Dose-dependent Activation of AlDeLuc by ALDH1A1. The response of AlDeLuc (5 μM) against different concentrations of ALDH1A1 was measured in a black 96-well plate and was monitored using the IVIS imaging system. To a black 96-well plate, PBS (pH 7.4), NAD^+, and either 0.05 μM, 0.1 μM, 0.4 μM, 2 μM, or 4 μM of ALDH1A1, was added AlDeLuc. Immediately after, each well was treated with ATP-MgSO4 (45 μL, prepared by mixing 17.78 mM ATP-Mg and 35.56 mM MgSO4 in a 1:1 ratio in PBS buffer) and luciferase (5 μL, 1 mg/mL in PBS containing 10% glycerol) to initiate bioluminescence production. Light was collected immediately after mixing, and the signal enhancement was determined relative to control wells not treated with enzymes. The total volume of each well was 200 μL (PBS (pH 7.4) with 0.2% DMSO). All data reported as the mean standard deviation (n=3).

ALDH1A1 activity = assay: High-fat diet inflammatory model, orthotopic 4T1-Luc tumors, AlDeLuc imaging after L-NMMA; format: in vivo, BALB/c mice; conditions: control group (water gavage), AlDeLuc 0.55 mg/kg, 40 min
Method: Finally, to examine how NO influences ALDH1A1 activity in vivo we placed BALB/c mice (female, 5-7 weeks old) on a high-fat diet for 40 weeks to induce an inflammatory response through elevated NO production. This period consists of a ˜20-week priming period prior to inoculation of the animals with 4T1-Luc cells at the mammary fat pad. At this point, the mice were randomized into two groups. The treatment group was administered L-NMMA (50 mg/kg), whereas the control group received water via oral gavage for 20 days. The day after the final treatment, mice from both conditions were treated systemically with AlDeLuc, and the bioluminescence was monitored (FIG. 5e). […] At the completion of the diet study, animals were sacrificed, and their tumors were excised for further immunohistochemical analysis.
Generation of an Orthotopic 4T1-Luc Breast Cancer Model for Diet Studies. Female BALB/c mice (˜6 weeks old) were inoculated with 4T1-Luc cells (50 μL of 1×10^5 cells in 1:1 v/v serum-free RPMI 1640 media and Matrigel) via subcutaneous injections into the mammary fat pad. Tumor volumes were measured using the caliper method every three days. Body weight was measured daily over the course of the experiment.

CCN(CC)c1ccc2nc(C3=N[C@@H](C(OC)OC)CS3)sc2c1 [AlDeLuc, (S)-2-(4-(dimethoxymethyl)-4,5-dihydrothiazol-2-yl)-N,N-diethylbenzo[d]thiazol-6-amine]
bioluminescence (acetal unmasking) ([1]; 1 M NaCl (neutral) one hour): no bioluminescence | bioluminescence (acetal unmasking) ([1]; 1 M NaOH (alkaline) one hour): no bioluminescence | signal intensity versus amount of ALDH1A1 (ALDH1A1; AlDeLuc 5 μM, ALDH1A1 0 to 4 μM): highest ALDH1A1 concentration showed the most intense signal | signal intensity versus AlDeLuc concentration (ALDH1A1; AlDeLuc 2 to 50 μM, ALDH1A1 0.4 μM): concentration-dependent increase | bioluminescent signal when acidic conditions and ALDH1A1 applied separately, compared to both (ALDH1A1; luciferase 0.02 mg/mL): significantly attenuated | total luminescent counts (ALDH1A1 activity): 1.7±0.8×10^4
